# Measured values published in patent US8623859B2, “Bradykinin B1 antagonists” (Evotec AG, priority 2008, dated 2014).
# pIC50: −log10 of the molar value. Where a name gives a salt, the structure may show the parent alone.
# Target: T1, human B1 (Homo sapiens, UniProt P46663)
# T1 construct: host or cells: CHO-K1
# T1 sequence (P46663 1-353): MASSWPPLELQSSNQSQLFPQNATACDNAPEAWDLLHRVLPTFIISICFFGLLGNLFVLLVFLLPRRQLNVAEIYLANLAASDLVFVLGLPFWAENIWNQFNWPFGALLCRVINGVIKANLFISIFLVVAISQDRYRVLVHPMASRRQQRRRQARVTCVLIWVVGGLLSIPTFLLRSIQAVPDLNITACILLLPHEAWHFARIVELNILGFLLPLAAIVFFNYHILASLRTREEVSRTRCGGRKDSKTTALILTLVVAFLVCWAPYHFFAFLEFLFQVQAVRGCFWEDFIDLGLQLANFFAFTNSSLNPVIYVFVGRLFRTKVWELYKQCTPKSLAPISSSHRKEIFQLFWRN
# Assay: Calcium flux assay for Bradykinin B1 antagonist, CHO-K1 cell line expressing human B1
# Assay type: cell-based
# Details: CHO-K1 cells expressing human B1, agonist Lys-(Des-Arg)-Bradykinin, read-out: Potency (IC50 value against human B1)
# Summary of the method: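 Inhibition of B1 agonist-evoked intracellular Ca2+ rise was followed by continuous fluorescence at 538 nm, with integrated, background-normalized signals plotted versus log compound concentration. Test compounds (eight 10-fold dilutions, triplicate, 1% DMSO final) were added 30 min at 25° C beforehand to Fluo-4AM-loaded human B1 CHO-K1 cells in pH 7.4 assay buffer.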
row,Compound,pIC50
1,"COc1cc(C)c(S(=O)(=O)N(Cc2cc(C(=O)N3CCN(CCc4ccccn4)CC3)co2)C2CC2)c(C)c1 [Ex 114, N-Cyclopropyl-4-methoxy-2,6-dimethyl-N-[(4-{[4-(2-pyridin-2-ylethyl)piperazin-1-yl]carbonyl}furan-2-yl)methyl]benzenesulfonamide trifluoroacetate]",6.00 to 7.00
2,"COc1cc(C)c(S(=O)(=O)N(C)Cc2noc(C(=O)N3CCN(CCCCN(C)C)CC3)n2)c(C)c1 [Ex 319, N-{[5-({4-[4-(Dimethylamino)butyl]piperazin-1-yl}carbonyl)-1,2,4-oxadiazol-3-yl]methyl}-4-methoxy-N,2,6-trimethylbenzenesulfonamide trifluoroacetate]",6.00 to 7.00
3,"COc1cc(C)c(S(=O)(=O)N(Cc2cc(C(=O)N3CCN(Cc4cccnc4)CC3)co2)C2CC2)c(C)c1 [Ex 111, N-Cyclopropyl-4-methoxy-2,6-dimethyl-N-[(4-{[4-(pyridin-3-ylmethyl)piperazin-1-yl]carbonyl}furan-2-yl)methyl]benzenesulfonamide trifluoroacetate]",6.00 to 7.00
4,"COc1cc(C)c(S(=O)(=O)N(C)Cc2cc(C(=O)N(C)Cc3ccc(CN4CCC(C(=O)N(C)C)C4)cc3)co2)c(C)c1 (stereo not shown) [Ex 131, 1-(4-{[{[5-({[(4-Methoxy-2,6-dimethylphenyl)sulfonyl](methyl)amino}methyl)furan-3-yl]carbonyl}(methyl)amino]methyl}benzyl)-N,N-dimethylpyrrolidine-3-carboxamide]",6.00 to 7.00
5,"COc1cc(C)c(S(=O)(=O)N(C)Cc2nnc(C(=O)N(C)Cc3ccc(CN4CCCC(OC)C4)cc3)o2)c(C)c1 (stereo not shown) [Ex 284, 5-({[(4-Methoxy-2,6-dimethylphenyl)sulfonyl](methyl)amino}methyl)-N-{4-[(3-methoxypiperidin-1-yl)methyl]benzyl}-N-methyl-1,3,4-oxadiazole-2-carboxamide]",6.00 to 7.00
6,"O=C(c1coc(CN(C2CC2)S(=O)(=O)c2c(Cl)cc(Br)cc2Cl)c1)N1CCCC(c2ccc(CN3CCCC3)cc2)C1 (stereo not shown) [Ex 125, 4-Bromo-2,6-dichloro-N-cyclopropyl-N-{[4-({3-[4-(pyrrolidin-1-ylmethyl)phenyl]piperidin-1-yl}carbonyl)furan-2-yl]methyl}benzenesulfonamide trifluoroacetate]",6.00 to 7.00
7,"COc1cc(C)c(S(=O)(=O)N(Cc2cc(C(=O)N3CCN(C4CC5CCC(C4)N5C)CC3)co2)C2CC2)c(C)c1 (stereo not shown) [Ex 107, N-Cyclopropyl-4-methoxy-2,6-dimethyl-N-[(4-{[4-(8-methyl-8-azabicyclo[3.2.1]oct-3-yl)piperazin-1-yl]carbonyl}furan-2-yl)methyl]benzenesulfonamide trifluoroacetate]",7.00 to 8.00
8,"CCN(Cc1cc(C(=O)NCCc2ccc(C3=NCCN3)cc2)co1)S(=O)(=O)c1c(C)cc(OC)cc1C [Ex 104, N-{2-[4-(4,5-Dihydro-1H-imidazol-2-yl)phenyl]ethyl}-5-({ethyl[(4-methoxy-2,6-dimethylphenyl)sulfonyl]amino}methyl)furan-3-carboxamide trifluoroacetate]",7.00 to 8.00
9,"COc1cc(C)c(S(=O)(=O)N(C)Cc2nnc(C(=O)N3CCN(CCCN(C)C)CC3)o2)c(C)c1 [Ex 279, N-{[5-({4-[3-(Dimethylamino)propyl]piperazin-1-yl}carbonyl)-1,3,4-oxadiazol-2-yl]methyl}-4-methoxy-N,2,6-trimethylbenzenesulfonamide]",7.00 to 8.00
10,"COc1cc(C)c(S(=O)(=O)N(C)Cc2nc(C(=O)N(C)Cc3ccc(CN4CCCC(OC)C4)cc3)co2)c(C)c1 (stereo not shown) [Ex 168, 2-({[(4-Methoxy-2,6-dimethylphenyl)sulfonyl](methyl)amino}methyl)-N-{4-[(3-methoxypiperidin-1-yl)methyl]benzyl}-N-methyl-1,3-oxazole-4-carboxamide]",7.00 to 8.00
11,"COc1cc(C)c(S(=O)(=O)N(Cc2cc(C(=O)NCc3ccc(CN4CCCC4)c(F)c3)co2)C2CC2)c(C)c1 [Ex 154, 5-({Cyclopropyl[(4-methoxy-2,6-dimethylphenyl)sulfonyl]amino}methyl)-N-[3-fluoro-4-(pyrrolidin-1-ylmethyl)benzyl]furan-3-carboxamide trifluoroacetate]",6.00 to 7.00
12,"COc1cc(C)c(S(=O)(=O)N(C)Cc2cc(C(=O)N(C)Cc3ccc(C4=NCCN4)cc3)c(C)o2)c(C)c1 [Ex 58, N-[4-(4,5-dihydro-1H-imidazol-2-yl)benzyl]-5-({[(4-methoxy-2,6-dimethylphenyl)sulfonyl](methyl)amino}methyl)-N,2-dimethylfuran-3-carboxamide]",7.00 to 8.00
13,"COc1cc(C)c(S(=O)(=O)N(C)Cc2nc(C(=O)N(C)Cc3nnc(CN4CCCC4)s3)co2)c(C)c1 [Ex 201, 2-({[(4-Methoxy-2,6-dimethylphenyl)sulfonyl](methyl)amino}methyl)-N-methyl-N-{[5-(pyrrolidin-1-ylmethyl)-1,3,4-thiadiazol-2-yl]methyl}-1,3-oxazole-4-carboxamide trifluoroacetate]",6.00 to 7.00
14,"COc1cc(C)c(S(=O)(=O)N(Cc2nc(C(=O)N3CCC(O)(/C=C/c4ccncc4)CC3)co2)C2CC2)c(C)c1 [Ex 241, N-Cyclopropyl-N-{[4-({4-hydroxy-4-[(E)-2-pyridin-4-ylethenyl]piperidin-1-yl}carbonyl)-1,3-oxazol-2-yl]methyl}-4-methoxy-2,6-dimethylbenzenesulfonamide trifluoroacetate]",7.00 to 8.00

# Further lines, results first:
row,pIC50,Compound
1,7.00 to 8.00,"COc1cc(C)c(S(=O)(=O)N(C)Cc2cc(C(=O)N(C)Cc3ccc(CN4CCCC4)cc3)co2)c(C)c1 [Ex 9, 5-({[(4-methoxy-2,6-dimethylphenyl)sulfonyl](methyl)amino}methyl)-N-methyl-N-[4-(pyrrolidin-1-ylmethyl)benzyl]furan-3-carboxamide]"
2,7.00 to 8.00,"COc1cc(C)c(S(=O)(=O)N(Cc2cc(C(=O)N3CCCN(CCCN4CCCC4)CC3)co2)C2CC2)c(C)c1 [Ex 116, N-Cyclopropyl-4-methoxy-2,6-dimethyl-N-[(4-{[4-(3-pyrrolidin-1-ylpropyl)-1,4-diazepan-1-yl]carbonyl}furan-2-yl)methyl]benzenesulfonamide trifluoroacetate]"
3,> 8.00,"COc1cc(C)c(S(=O)(=O)N(Cc2nc(C(=O)N3CCN(Cc4ccc(N5CCCC5)nc4)CC3)co2)C2CC2)c(C)c1 [Ex 237, N-Cyclopropyl-4-methoxy-2,6-dimethyl-N-{[4-({4-[(6-pyrrolidin-1-ylpyridin-3-yl)methyl]piperazin-1-yl}carbonyl)-1,3-oxazol-2-yl]methyl}benzenesulfonamide trifluoroacetate]"
4,> 8.00,"COc1cc(C)c(S(=O)(=O)N(Cc2nc(C(=O)N3CCN(CC4CCCN(C)C4)CC3)co2)C2CC2)c(C)c1 (stereo not shown) [Ex 192, N-Cyclopropyl-4-methoxy-2,6-dimethyl-N-{[4-({4-[(1-methylpiperidin-3-yl)methyl]piperazin-1-yl}carbonyl)-1,3-oxazol-2-yl]methyl}benzenesulfonamide trifluoroacetate]"
5,7.00 to 8.00,"CCN(Cc1cc(C(=O)N(C)Cc2ccc(C3=NCCN3)cc2)co1)S(=O)(=O)c1c(C)cc(OC)cc1C [Ex 103, N-[4-(4,5-Dihydro-1H-imidazol-2-yl)benzyl]-5-({ethyl[(4-methoxy-2,6-dimethylphenyl)sulfonyl]amino}methyl)-N-methylfuran-3-carboxamide trifluoroacetate]"
6,> 8.00,"COc1cc(C)c(S(=O)(=O)N(C)Cc2noc(C(=O)N3CCC(CCN4CCCC4)CC3)n2)c(C)c1 [Ex 310, 4-Methoxy-N,2,6-trimethyl-N-[(5-{[4-(2-pyrrolidin-1-ylethyl)piperidin-1-yl]carbonyl}-1,2,4-oxadiazol-3-yl)methyl]benzenesulfonamide]"
7,> 8.00,"COc1cc(C)c(S(=O)(=O)N(Cc2nc(C(=O)N3CCN(CCN4CCCCC4)CC3)co2)C2CC2)c(C)c1 [Ex 194, N-Cyclopropyl-4-methoxy-2,6-dimethyl-N-[(4-{[4-(2-piperidin-1-ylethyl)piperazin-1-yl]carbonyl}-1,3-oxazol-2-yl)methyl]benzenesulfonamide trifluoroacetate]"
8,> 8.00,"COc1cc(C)c(S(=O)(=O)N(C)Cc2cc(C(=O)NCCc3ccc(Nc4cccc[n+]4C)cc3)co2)c(C)c1 [Ex 13, 2-({4-[2-({[5-({[(4-methoxy-2,6-dimethylphenyl)sulfonyl](methyl)amino}methyl)furan-3-yl]carbonyl}amino)ethyl]phenyl}amino)-1-methylpyridinium iodide]"
9,> 8.00,"COc1cc(C)c(S(=O)(=O)N(Cc2noc(C(=O)N3CCN(CC4CCN(C)CC4)CC3)n2)C2CC2)c(C)c1 [Ex 314, N-Cyclopropyl-4-methoxy-2,6-dimethyl-N-{[5-({4-[(1-methylpiperidin-4-yl)methyl]piperazin-1-yl}carbonyl)-1,2,4-oxadiazol-3-yl]methyl}benzenesulfonamide]"
10,> 8.00,"COc1cc(C)c(S(=O)(=O)N(C)Cc2noc(C(=O)N(C)Cc3ccc(CN4CCCC4)cc3)n2)c(C)c1 [Ex 300, 3-({[(4-Methoxy-2,6-dimethylphenyl)sulfonyl](methyl)amino}methyl)-N-methyl-N-[4-(pyrrolidin-1-ylmethyl)benzyl]-1,2,4-oxadiazole-5-carboxamide trifluoroacetamide]"
11,> 8.00,"COc1cc(C)c(S(=O)(=O)N(Cc2nc(C(=O)N3CCN(CCCN4CCCC4)CC3)co2)C2CC2)c(C)c1 [Ex 197, N-Cyclopropyl-4-methoxy-2,6-dimethyl-N-[(4-{[4-(3-pyrrolidin-1-ylpropyl)piperazin-1-yl]carbonyl}-1,3-oxazol-2-yl)methyl]benzenesulfonamide trifluoroacetate]"
